Laboratory results taken from ChEMBL document CHEMBL1154248, “Matrix metalloproteinase-2 inhibitors from Clinopodium chinense var. parviflorum” (J Nat Prod, 2009).
pIC50: −log10 of the molar value.

Target: 72 kDa type IV collagenase (Rattus norvegicus, UniProt P33436)
Experiment: Inhibition of gelatinolytic activity of MMP2 in rat lung homogenate after 40 mins by SDS-PAGE preincubated for 30 mins

72 kDa type IV collagenase, sequence (P33436 whole entry): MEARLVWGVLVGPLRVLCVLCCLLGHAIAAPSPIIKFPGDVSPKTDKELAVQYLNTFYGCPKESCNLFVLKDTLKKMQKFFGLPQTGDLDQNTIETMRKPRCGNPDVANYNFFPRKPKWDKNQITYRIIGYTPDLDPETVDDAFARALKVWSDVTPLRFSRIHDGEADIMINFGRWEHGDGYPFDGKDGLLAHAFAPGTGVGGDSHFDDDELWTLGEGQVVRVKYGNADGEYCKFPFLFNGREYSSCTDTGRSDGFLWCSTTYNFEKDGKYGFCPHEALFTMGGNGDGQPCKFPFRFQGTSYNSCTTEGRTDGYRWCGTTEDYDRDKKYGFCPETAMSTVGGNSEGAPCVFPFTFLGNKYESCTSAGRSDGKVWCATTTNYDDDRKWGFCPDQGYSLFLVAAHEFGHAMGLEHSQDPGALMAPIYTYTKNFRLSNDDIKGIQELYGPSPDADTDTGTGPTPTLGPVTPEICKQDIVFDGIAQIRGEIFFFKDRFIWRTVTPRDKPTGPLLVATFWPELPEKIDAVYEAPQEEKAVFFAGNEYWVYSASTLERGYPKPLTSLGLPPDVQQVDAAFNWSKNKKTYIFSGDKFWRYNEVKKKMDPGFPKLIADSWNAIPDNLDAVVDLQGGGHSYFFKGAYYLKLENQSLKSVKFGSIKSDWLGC

| Compound | pIC50 |
| --- | --- |
| COc1cc(C[C@@H](OC(=O)/C=C/c2ccc3c(c2)O[C@@H](C(=O)O)[C@@H](c2ccc(O)c(O)c2)O3)C(=O)O)ccc1O [CLINOPODIC ACID F] | < 4.00 |
| O=C(/C=C/c1ccc(O)c(O)c1)O[C@H](Cc1ccc(O)c(O)c1)C(=O)O [ROSMARINIC ACID] | 4.57 |
| COC(=O)[C@@H](Cc1ccc(O)c(O)c1)OC(=O)/C=C/c1ccc(O)c(O)c1 [METHYL ROSMARINATE] | < 4.00 |
| O=C(/C=C/c1ccc2c(c1)O[C@H](C(=O)O)[C@H](c1ccc(O)c(O)c1)O2)O[C@H](Cc1ccc(O)c(O)c1)C(=O)O [CLINOPODIC ACID C] | 5.49 |
| O=C(/C=C/c1ccc(O)cc1)O[C@H](Cc1ccc(O)c(O)c1)C(=O)O [CLINOPODIC ACID A] | < 4.00 |
| COc1cc(C[C@@H](OC(=O)/C=C/c2ccc(O)c(O)c2)C(=O)O)ccc1O [CLINOPODIC ACID B] | < 4.00 |
| COc1cc(C[C@@H](OC(=O)/C=C/c2ccc(O)c3c2[C@H](C(=O)O)[C@@H](c2ccc(O)c(OC)c2)O3)C(=O)O)ccc1O [CLINOPODIC ACID H] | < 4.00 |
| O=C(/C=C/c1ccc(O)c2c1[C@H](C(=O)O)[C@@H](c1ccc(O)c(O)c1)O2)O[C@H](Cc1ccc(O)c(O)c1)C(=O)O [LITHOSPERMIC ACID] | 4.99 |
| O=C(/C=C/c1ccc2c(c1)O[C@@H](C(=O)O)[C@@H](c1ccc(O)c(O)c1)O2)O[C@H](Cc1ccc(O)c(O)c1)C(=O)O [CLINOPODIC ACID E] | < 4.00 |
